In patent publication US20100138947A1, “Method for Producing Stem Cells or Stel Cell-Like Cells from Mammalian Embryos” (priority 2005, published 2010):

Columns and labels:
[1] = tested on: mouse pre-implantation embryos (129sv x OG2 Oct4-EGFP); test: Isolation of ES-like cells from mouse morula/blastocysts pre-treated with 5-aza-cytidine (Oct4-EGFP reporter); assay type: cell-based; details: 1 μM for 24 h pre-treatment
Protocol: Pre-pubertal (5-6 week old) 129sv females were super-ovulated using a routine protocol (1 IU PMSG and HCG injected i.p. 48h apart) before mating with OG2 males. […] The OG2 males, used as studs for mating, were C57/B16 strain and transgenic for an Oct4-EGFP construct. All pluripotent cells from these mice express GFP and this property was exploited in this study with GFP being used as a fluorescent marker to facilitate the identification of ESCs once derived. Zygotes were collected from the oviduct of humanely killed female mice. Cumulus cells were removed from zygotes by treatment with Hyaluronidase (300 IU/ml) in KSOM medium (Chemicon). The zygotes were carefully washed to remove hyaluronidase and transferred to a fresh dish with culture drops in a 37° C. incubator and allowed to develop to the morula/blastocyst stage. Treatment of Morula/Blastocyst with 1 μM of 5-aza-cytidine. Morula/blastocysts were cultured in the KSOM culture drops supplemented with 1 μM 5-aza-cytidine for 24 hr. F1 (CBA/C57) MEF's were used as a feeder layer to facilitate attachment of embryos and subsequent isolation and support of ESCs. MEF's were inactivated by treatment with mitomycin C (10 μg/ml) for 2.5 hr in the 37° C. incubator and plated at the rate of 3×10^5 cells/ml per 6 cm dish. […]

[2] = tested on: Bovine D7.5 embryos at the blastocyst stage; test: Culture of crushed whole bovine blastocysts on MEF feeder layer with 5′-azacytidine (primary and passaged outgrowths); assay type: cell-based
Protocol: Bovine D7.5 embryos at the blastocyst stage were crushed and depressed into mouse embryonic feeder (MEF) layers, using fine-tipped glass micropipettes or Ultra-fine needle insulin syringe, and cultured in alpha-MEM medium in presence of bFGF, hEGF, ITS, hrLIF, 2-beta-ME, Glutamax, NEAA and 20% FCS. On the same day or on the following day the media was replaced with fresh media containing (treated group) or not containing (untreated group) 5 μM 5′-azacytidine. The media in each group was changed every 3 days.
After seven to nine days, non-treated and treated “squashed” whole embryos developed morphologically distinguishable primary embryonal outgrowths.
These cell colonies reached confluence in 14-21 days, depending on the number of pieces that were placed in the dish. The growing colonies which developed into confluent monolayers expressed marker of pluripotency, such as Oct4.

## Nc1ncn([C@@H]2O[C@H](CO)[C@@H](O)[C@H]2O)c(=O)n1 [5′-azacytidine, 5-azacytidine]
[1]; then 0.1 μM in modified ESC medium
  Expression of GFP transgene under control of Oct4 in putative ESCs: expressed a GFP transgene
[1]; then 0.1 μM in modified ESC medium on feeder layer, 8-10 days of culture
  Formation of ESC-like colonies from embryonal explants: colonies of cells resembling ESCs were observed
[2]; 5 μM, after seven to nine days of culture, untreated outgrowths contained pluripotent, trophoblast and primitive endoderm cells
  Cell composition/morphology of primary embryonal outgrowth (treated outgrowth, TRO): consisting only of cells with morphology, characteristic of bovine ES-like cells
[2]; 5 μM, in control outgrowths only the PC part expressed the markers
  Expression of markers of pluripotency Oct4, Rex1 and SSEA-1 in TRO outgrowths: all the cells expressed these markers
[2]; 5 μM, over the next 9-12 days, without any changes in morphology
  Diameter of TRO outgrowths: about 2 cm
[2]; concentration reduced to below 2.5 μM
  Same effects on primary and passaged cultures at reduced concentration: not observed
[2]; passaged TRO in the presence of 5′-azacytidine, depends on number of pieces in the dish
  Time for passaged colonies to reach confluence: 14 to 21 days
[2]; primary TRO cultured 14-21 days, split into 600-800 μm pieces, passaged onto fresh feeder layer, cultured in the presence of 5′-azacytidine
  Colony formation of passaged TRO outgrowths: able to form colonies of cells with uniform morphology, characteristic of bovine ES-like cells
